The target of this test is Bromodomain adjacent to zinc finger domain protein 2A (Homo sapiens) (UniProt Q9UIF9). Briefly: Inhibition of His6-tagged BAZ2A (unknown origin) (1796 to 1899 residues) assessed as residual activity at 100 uM using H3K(Ac)14 substrate by AlphaScreen assay relative to control. A general note: In Alpha technology, singlet oxygen from a donor bead excites a nearby acceptor bead.

Molecules are shown by their SMILES.

Chain of Bromodomain adjacent to zinc finger domain protein 2A (Homo sapiens) (Q9UIF9 whole entry, the tested form may be a part): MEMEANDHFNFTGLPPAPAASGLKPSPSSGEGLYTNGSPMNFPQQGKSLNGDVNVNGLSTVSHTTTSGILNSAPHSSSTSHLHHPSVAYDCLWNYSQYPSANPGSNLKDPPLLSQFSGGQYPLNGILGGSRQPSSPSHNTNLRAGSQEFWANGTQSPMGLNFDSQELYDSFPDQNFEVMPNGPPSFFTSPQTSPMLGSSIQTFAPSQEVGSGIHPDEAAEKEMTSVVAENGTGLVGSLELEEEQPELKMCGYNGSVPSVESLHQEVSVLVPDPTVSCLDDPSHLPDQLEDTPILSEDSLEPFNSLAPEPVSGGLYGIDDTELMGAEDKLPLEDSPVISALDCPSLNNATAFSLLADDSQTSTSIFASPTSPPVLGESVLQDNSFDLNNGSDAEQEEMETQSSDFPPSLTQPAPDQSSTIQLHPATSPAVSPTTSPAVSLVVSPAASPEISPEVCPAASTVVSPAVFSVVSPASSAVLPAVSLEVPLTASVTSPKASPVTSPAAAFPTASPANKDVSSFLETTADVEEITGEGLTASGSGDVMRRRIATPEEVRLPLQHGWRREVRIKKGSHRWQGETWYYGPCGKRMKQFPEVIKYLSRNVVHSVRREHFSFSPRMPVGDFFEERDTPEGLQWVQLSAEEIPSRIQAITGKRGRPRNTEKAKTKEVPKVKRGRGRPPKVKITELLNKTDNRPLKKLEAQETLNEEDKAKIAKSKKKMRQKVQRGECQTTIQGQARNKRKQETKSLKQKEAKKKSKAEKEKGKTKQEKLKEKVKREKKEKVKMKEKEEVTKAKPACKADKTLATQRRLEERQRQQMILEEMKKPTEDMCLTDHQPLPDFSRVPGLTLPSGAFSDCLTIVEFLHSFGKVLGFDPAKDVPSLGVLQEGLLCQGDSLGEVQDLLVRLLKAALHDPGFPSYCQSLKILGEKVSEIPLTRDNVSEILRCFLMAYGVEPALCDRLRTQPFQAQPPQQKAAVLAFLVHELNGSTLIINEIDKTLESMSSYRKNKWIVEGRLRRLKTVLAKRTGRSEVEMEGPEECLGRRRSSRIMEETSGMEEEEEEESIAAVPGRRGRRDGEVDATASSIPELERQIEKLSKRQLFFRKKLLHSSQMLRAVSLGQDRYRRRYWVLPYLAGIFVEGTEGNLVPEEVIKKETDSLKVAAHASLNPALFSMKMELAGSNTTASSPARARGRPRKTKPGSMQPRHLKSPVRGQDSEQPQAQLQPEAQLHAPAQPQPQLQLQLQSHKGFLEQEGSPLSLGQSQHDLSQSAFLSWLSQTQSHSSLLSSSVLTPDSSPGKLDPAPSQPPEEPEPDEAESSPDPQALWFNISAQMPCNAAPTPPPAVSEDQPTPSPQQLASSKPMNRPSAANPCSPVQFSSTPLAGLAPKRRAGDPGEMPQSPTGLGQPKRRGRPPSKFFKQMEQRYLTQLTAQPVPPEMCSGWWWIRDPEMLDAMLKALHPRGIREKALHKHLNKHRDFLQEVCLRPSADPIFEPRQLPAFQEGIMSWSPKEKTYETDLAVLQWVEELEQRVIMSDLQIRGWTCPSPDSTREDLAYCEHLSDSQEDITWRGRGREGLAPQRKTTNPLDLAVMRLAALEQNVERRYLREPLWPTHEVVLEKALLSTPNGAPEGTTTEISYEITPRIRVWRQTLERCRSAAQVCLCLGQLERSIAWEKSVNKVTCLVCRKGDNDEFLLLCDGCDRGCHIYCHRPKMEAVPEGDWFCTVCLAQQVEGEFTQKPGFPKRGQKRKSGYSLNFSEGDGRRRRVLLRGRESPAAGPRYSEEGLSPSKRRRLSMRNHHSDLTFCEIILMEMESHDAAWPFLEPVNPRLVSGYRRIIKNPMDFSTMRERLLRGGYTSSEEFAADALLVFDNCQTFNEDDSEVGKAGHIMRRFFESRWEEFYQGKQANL

Regarding `CC(=O)c1c(C)[nH]c(-c2csc(N=C(N)N)n2)c1CCC(C)C`, the Activity is over 50%.

Source of the values: ChEMBL document CHEMBL5143756, “Identification of a BAZ2A-Bromodomain Hit Compound by Fragment Growing” (ACS Med Chem Lett, 2022).
